According to patent publication US20230338564A1, “NEODEGRADER CONJUGATES” (Orum Therapeutics, Inc., priority 2020, published 2023):

What was measured:
[1] = system: JHUEM-3 cell line (Uterus); assay: In vitro antiproliferation assay, General Procedure 1 (WST-8); assay type: cell-based
Method: (§1) The ability of neoDegrader conjugates to inhibit cell growth was measured using in vitro anti-proliferation assay. […] Conjugates were diluted in complete cell growth medium using 4-fold serial dilutions and 100 µL was added per well. […] Viability of remaining cells was determined by colorimetric WST-8 assay (Dojindo Molecular Technologies, Inc., Rockville, MD, US). WST-8 was added to 10% of the final volume and plates were incubated at 37° C. in a humidified 5% CO2 incubator for 2-4 hours. Plates were analyzed by measuring the absorbance at 450 nm (A450) in a multi-well plate reader. Background A450 absorbance of wells with media and WST-8 only was subtracted from all values. The percent viability was calculated by dividing each treated sample value by the average value of wells with untreated cells. The percent viability value was plotted against the test sample concentration in a semi-log plot for each treatment. IC50 values were calculated automatically.

[2] = system: Ramos (non-Hodgkins lymphoma) cell line; assay: as above; assay type: cell-based
Method: as §1

[3] = system: SK-BR-3 breast cancer cell line; assay: as above; assay type: cell-based
Method: as §1

[4] = system: NCI-N87 gastric cancer cell line; assay: as above; assay type: cell-based
Method: as §1

[5] = system: CFPAC-1 cell line (Pancreatic); assay: as above; assay type: cell-based; details: Homo sapiens
Method: as §1

Daudi lymphoma cell line = assay: as above; assay type: cell-based
Method: as §1

[6] = system: NCI-H2030 cell line (Lung); assay: as above; assay type: cell-based; details: Homo sapiens
Method: as §1

[7] = system: BT-474 breast cancer cell line; assay: as above; assay type: cell-based; details: Homo sapiens, BT-474, read-out: IC50, BT-474, conjugates DAR 8, comparators DAR not given
Method: as §1

[8] = system: HCC1954 cell line (Breast); assay: as above; assay type: cell-based; details: Homo sapiens, conjugates DAR 8
Method: as §1

EOL-1 cell line = assay: In vitro antiproliferation assay, General Procedure 2 (CCK-8); assay type: cell-based, human; details: Homo sapiens, EOL1; Acute myeloid leukemia; read-out: IC50, EOL-1
From the text: Cell Culture: Cell lines were obtained from the American Type Culture Collection (ATCC, Manassas, VA, USA) or Deutsche Sammlung von Mikroorganismen und Zellkulturen (DSMZ, Braunschweig, Germany) and maintained according to the culturing conditions specified by ATCC or DSMZ. Cells were thawed out and maintained in culture for at least two passages before proceeding with experimental conditions.
Cytotoxicity assays: For adherent cell lines, the cells were dissociated with enzyme-free PBS-based cell dissociation buffer (Gibco, USA) and plated on tissue culture treated 96-well flat bottom polystyrene plates (Costar, Corning, USA) at appropriate cell densities depending on doubling time of the cells. 18 hours after plating, cells were treated with test articles at appropriate concentrations starting at 100 nM and diluted in 4-fold serial dilutions. For suspension cell lines, the cells were seeded on the same day of treatment and cells were treated as described above. Adherent cells were treated for 5 days and suspension cells were treated for 3 days. Cell proliferation was assessed using the Cell Counting Kit-8 (CCK-8, Dojindo Laboratories, Japan) and measurements were obtained using the Promega GloMax Discover plate reader (Promega, USA). Data were analyzed using GraphPad Prism software (GraphPad Software, San Diego, CA). All data points were obtained from technical triplicates and the experiments were validated using three biological replicates.

**Q.** With `CNCCOCCc1ccc(NC(=O)NCc2ccc3c(c2)CN(C2CCC(=O)NC2=O)C3=O)cc1Cl` (centres unmarked) [Compound P1, 1-(3-chloro-4-[2-[2-(methylamino)ethoxy]ethyl]phenyl)-3-[[2-(2,6-dioxopiperidin-3-yl)-1-oxo-3H-isoindol-5-yl]methyl]urea] as the compound, how does the IC50 [1] read?
**A.** > 0.1 µM

**Q.** And the IC50 ([2]; Homo sapiens, Ramos)?
**A.** > 0.1 µM

**Q.** What about the “antiproliferative activity compared, in words” value ([2]; Ramos cells, rituximab neoDegrader conjugates versus comparators, FIG. 13) of the same compound?
**A.** less active

**Q.** What about the IC50 ([3]; Homo sapiens, SK-BR-3, Breast, conjugates DAR 8) of the same compound?
**A.** 0.1 µM

**Q.** And the “anti-proliferative activity compared, in words” value ([3]; SK-BR-3 cells, neoDegrader conjugates (DAR 8) versus comparators, FIGS. 7 and 8)?
**A.** significantly less active

**Q.** What about the IC50 ([4]; Homo sapiens, NCI-N87, Gastric, conjugates DAR 8) of the same compound?
**A.** > 0.1 µM

**Q.** And the “anti-proliferative activity compared, in words” value ([4]; NCI-N87 cells, neoDegrader conjugates (DAR 8) versus comparators, FIGS. 16 and 17)?
**A.** significantly less active

**Q.** And the IC50 [5]?
**A.** > 0.1 µM

**Q.** And the “antiproliferative activity compared, in words” value (Daudi lymphoma cell line; Daudi cells, rituximab neoDegrader conjugates versus comparators, FIGS. 14 and 15)?
**A.** less active

**Q.** And the IC50 (Daudi lymphoma cell line; Homo sapiens, Daudi)?
**A.** > 0.1 µM

**Q.** And the IC50 [6]?
**A.** > 0.1 µM

**Q.** What about the IC50 [7] of the same compound?
**A.** 0.013 µM

**Q.** What about the IC50 [8] of the same compound?
**A.** > 0.1 µM

**Q.** What about the IC50 (EOL-1 cell line) of the same compound?
**A.** 0.0031 µM
